# Measurements from publication PMC4355058 (Analytical biochemistry, 2014).
# Structures can show the parent of a compound that is named as a salt. Where two headings read alike, the source gives them in different places.
# Columns and labels:
# A2a-8M receptor = A2a-8M receptor (Homo sapiens, UniProt P29274, A54L/K122A/L202A/L235A/N154A/R107A/S277A/T88A/V239A); assay: Isothermal chemical denaturation
# WT A2a receptor = details: cited from earlier work
# A2a-8M [1] = biological target: A2a-8M (Homo sapiens, UniProt P29274, A54L/K122A/L202A/L235A/R107A/S277A/T88A/V239A); assay: SPR analysis of small molecule binding
# Sequence of A2a-8M (Homo sapiens, UniProt P29274, A54L/K122A/L202A/L235A/R107A/S277A/T88A/V239A) (P29274 1-317 A54L/T88A/R107A/K122A/L202A/L235A/V239A/S277A): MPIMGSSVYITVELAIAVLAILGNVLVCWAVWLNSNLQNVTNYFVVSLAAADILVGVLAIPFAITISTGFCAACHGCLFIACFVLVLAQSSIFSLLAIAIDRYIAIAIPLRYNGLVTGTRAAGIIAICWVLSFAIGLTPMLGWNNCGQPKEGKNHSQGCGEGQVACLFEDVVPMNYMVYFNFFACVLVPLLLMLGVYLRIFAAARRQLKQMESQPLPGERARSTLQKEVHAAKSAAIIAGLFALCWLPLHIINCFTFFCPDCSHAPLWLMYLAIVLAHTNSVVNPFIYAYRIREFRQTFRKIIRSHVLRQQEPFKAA
# A2aR = details: read-out: Kd, SPR study at 10°C; cited from earlier work
# A2a-8M [2] = assay: SPR analysis of small molecule binding; details: read-out: SPR Kd
# [3] = [L] = 21 μM, 25°C, 338 nm, apo 1.37
# [4] = [L] = 21 μM, 25°C, 338 nm, apo 2.90
# [5] = [L] = 21 μM, 25°C, protein […], 338 nm, apo 3.96
# [6] = [L] = 2 μM, 25°C, 338 nm (SCH58261 at 316 nm), apo 2.90 (338 nm), 2.88 (316 nm)
# [7] = [L] = 2 μM, 25°C, 338 nm (SCH58261 at 316 nm), apo 1.37
# Sequence of A2a-8M receptor (P29274 1-316 A54L/T88A/R107A/K122A/N154A/L202A/L235A/V239A/S277A): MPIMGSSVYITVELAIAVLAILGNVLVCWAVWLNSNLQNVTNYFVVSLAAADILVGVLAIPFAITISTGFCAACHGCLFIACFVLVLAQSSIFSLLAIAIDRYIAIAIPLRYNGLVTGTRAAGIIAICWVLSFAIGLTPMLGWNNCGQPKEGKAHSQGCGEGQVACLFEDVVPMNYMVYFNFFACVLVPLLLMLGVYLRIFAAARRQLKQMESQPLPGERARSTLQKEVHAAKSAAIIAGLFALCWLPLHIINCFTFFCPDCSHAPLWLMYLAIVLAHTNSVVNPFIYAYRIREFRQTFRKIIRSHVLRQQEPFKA
SMILES,m (A2a-8M receptor; [3]) [kcal/mol×M],C½ (midpoint of denaturation curve) (A2a-8M receptor; [4]) [M GuHCl],ΔG (Gibbs energy of protein stability in presence of ligand) (A2a-8M receptor; [5]) [kcal/mol],C½ (midpoint of denaturation curve) (A2a-8M receptor; [6]) [M GuHCl],other results
CCOc1nc2c(N)ncnc2n1CC [ANR94],1.65,3.53,5.82,,
CCNC(=O)[C@H]1O[C@@H](n2cnc3c(N)nc(NCCc4ccc(CCC(=O)O)cc4)nc32)[C@H](O)[C@@H]1O [CGS21680],,,,,binding affinity (WT A2a receptor): > 10 µM
Cn1c(=O)c2c(ncn2C)n(C)c1=O [Caffeine],,,,3.28,
N=C(N)NC(=O)Cc1c(Cl)cccc1Cl [Guanfacine HCl],1.37,2.25,3.08,,
CCCCC#Cc1nc(NC)c2ncn([C@@H]3O[C@H](CO)[C@@H](O)[C@H]3O)c2n1 [Hemado],1.77,2.59,4.59,,
N#Cc1c(N)nc(SCc2ncc[nH]2)c(C#N)c1-c1ccc(O)cc1 [LUF5834],,,,3.18,m (A2a-8M receptor; [7]): 1.90 kcal/mol×M
CCO/C(O)=C1\C(C)=NC(c2ccccc2)=C(C(=O)OCc2ccc([N+](=O)[O-])cc2)C1C#Cc1ccccc1 (stereo not shown) [MRS1334],,,,3.20,Kd (A2a-8M [1]): 5900 nM; Kd (A2a-8M receptor): 5500 nM; m (A2a-8M receptor; [7]): 1.30 kcal/mol×M
Nc1nc(SCCc2ccc(S(=O)(=O)O)cc2)nc2c1ncn2[C@@H]1O[C@H](CO)[C@@H](O)[C@H]1O [PSB0777],1.56,2.22,3.47,,
CCCn1c(=O)[nH]c2nc(-c3ccc(S(=O)(=O)O)cc3)[nH]c2c1=O [PSB1115],,,,3.82,Kd (A2aR): 158 nM; m (A2a-8M receptor; [7]): 1.63 kcal/mol×M
Nc1nc2c(cnn2CCc2ccccc2)c2nc(-c3ccco3)nn12 [SCH58261],,,,,Kd (A2a-8M [2]): 14 nM; C½ (midpoint of denaturation curve) (A2a-8M receptor): 3.91 M GuHCl; m (A2a-8M receptor): 1.80 kcal/mol×M; ΔG (Gibbs energy of protein stability in presence of ligand) (A2a-8M receptor): 7.01 kcal/mol
COc1ccc(CCCn2ncc3c2nc(N)n2nc(-c4ccco4)nc32)cc1 [SCH442416],,,,,binding affinity (WT A2a receptor): 50 pm
CN1CCc2cccc(Cl)c2CC1.Cl [SKF86466 HCl],1.55,2.18,3.38,,
COC1CCN(c2cccc(-c3cc(NC(C)=O)nc(-n4nc(C)cc4C)n3)n2)CC1 [TC-G1004],,,,,"m (A2a-8M receptor; [L] = 0.4 μM, 25°C, 338 nm (SCH442416 at 316 nm), apo 1.37): 1.42 kcal/mol×M"
c1ccc(NCc2ccc(CNc3ccccn3)cc2)nc1 [WZ811],,,,2.98,m (A2a-8M receptor; [7]): 1.19 kcal/mol×M
Cl.Cl.OCCOCCN1CCN(Cc2cccc(Oc3ccccc3)c2)CC1 [ZK756326],1.50,3.41,5.11,,
